Measurements: patent US10351509B2, “Fenfluramine compositions and methods of preparing the same” (priority 2015, dated 2019)
Like-named read-outs stand apart in the source and are kept apart here. Marks after values point to notes of the source that are not given here.

How the values were obtained:
Solution pH (water) = assay type: physicochemical
[1] = Hygroscopicity by Dynamic Vapor Sorption (DVS); assay type: physicochemical
Solid stability by HPLC = assay type: physicochemical; conditions: 8 weeks at 40° C., 60° C. and 80° C.; 7 days at 150° C.; all conditions
[2] = Stability analysis of the salt (Form 1) under temperature/humidity and photostability conditions; assay type: physicochemical; conditions: one week at 40° C./0% RH, three weeks at 40° C./75% RH, and photostability conditions
From the text: Fenfluramine HCl is developed as a single polymorph Form 1. A polymorphism and pre-formulation study has been conducted. Under a wide range of solvents and conditions crystalline material is produced of the same polymorph Form 1 based on a well-defined XRPD pattern and a consistent reproducible endotherm by DSC analysis. A summary of the chemophysical properties of Fenfluramine HCl from this study is provided below. Tabulated data includes example diffractograms, DSCs, and micrographs.

[3] = Holding at approximately 170° C., analysis by XRPD, DSC and 1H NMR; assay type: physicochemical; conditions: held at approximately 170° C. for several hours
Experimental: Holding Fenfluramine HCl at approximately 170° C. for several hours causes a melt and evaporation event to take place with recombination and cooling to provide a white solid.

[4] = for Parent remaining: 168 h
[5] = pKa (water) of drug substance
[6] = Solubility in organic solvents; conditions: 25 °C, organic solvent or mixture

SMILES: CCNC(C)Cc1cccc(C(F)(F)F)c1.Cl (racemic) [Fenfluramine HCl, N-ethyl-α-methyl-3-(trifluoromethyl)-benzeneethanamine hydrochloride (1:1)]
- Solution pH (water) (Solution pH (water)): 6.69
- Hygroscopicity (Dynamic Vapor Sorption (DVS)) ([1]; @30% RH): @30% RH: ~0.05%
- Hygroscopicity (Dynamic Vapor Sorption (DVS)) ([1]; @60% RH): @60% RH: ~0.07%
- Hygroscopicity (Dynamic Vapor Sorption (DVS)) ([1]; @90% RH): @90% RH: ~0.20%^a)
- Solid Stability: new impurities >0.1% by HPLC (Solid stability by HPLC): 150 °C All conditions, no new impurities >0.1% by
- Stability of the salt: form and new impurities at 0.1% threshold [2]: input Form 1 has been maintained with no new impurities observed at 0.1% threshold
- Change after melt and evaporation event (XRPD, DSC, 1H NMR) [3]: no change in chemical or physical form, purity, or dissociation
- Parent remaining after degradation ([4]; 24 h): 94.42%
- Parent remaining [4]: 99.90 parent area %
- Parent remaining ([4]; buffer): 99.73 parent area %
- solubility (Aqueous solubility; 0.9% NaCl in water, 25 °C, saline or isotonic): 23 mg/mL
- solubility (Aqueous solubility; pH 1.73 buffer, 25 °C, pH 1.73, simulated gastric fluid): 25.3 mg/mL
- solubility (Aqueous solubility; pH 1.73 buffer, 37 °C, pH 1.73, simulated gastric fluid): 53.7 mg/mL
- solubility (Aqueous solubility; pH 3.43 buffer, 25 °C, pH 3.43, aqueous buffer): 29.5 mg/mL
- solubility (Aqueous solubility; pH 3.43 buffer, 37 °C, pH 3.43, aqueous buffer): 62 mg/mL
- solubility (Aqueous solubility; pH 6.41 buffer, 25 °C, pH 6.41, aqueous buffer): 37.4 mg/mL
- solubility (Aqueous solubility; pH 6.41 buffer, 37 °C, pH 6.41, aqueous buffer): 95.6 mg/mL
- solubility (Aqueous solubility; water, 25 °C, pH 6.69, water): 54.1 mg/mL
- solubility (Aqueous solubility; water, 37 °C, pH 6.69, water): 71.2 mg/mL
- pKa [5]: 10.2 to 10.4
- solubility ([6]; dichloromethane): 30 to 35 mg/mL
- solubility ([6]; ethanol): 150 mg/mL
- solubility ([6]; ethyl acetate, tetrahydrofuran, toluene, acetonitrile): 1 to 5 mg/mL
